From ChEMBL document CHEMBL1134218, “Sialidase inhibitors related to zanamivir. Further SAR studies of 4-amino-4H-pyran-2-carboxylic acid-6-propylamides” (Bioorg Med Chem Lett, 2001)
Values after ≈ are worked out from the molar mass of the structure shown.

Key:
Influenza B virus = assay: Concentration required for reduction of plaque against influenza B; assay type: functional, organism-based, unidentified influenza virus
Influenza A virus = assay: Concentration required for reduction of plaque against influenza A; assay type: functional, organism-based, unidentified influenza virus
[1] = Influenza B virus, read-out: IC50
[2] = Influenza A virus, read-out: IC50

SMILES | IC50 (Influenza B virus; [1]) | IC50 (Influenza A virus; [2]) | IC50 (Influenza B virus) | IC50 (Influenza A virus)
CCCN(CCc1ccccc1)C(=O)[C@@H]1OC(C(=O)O)=C[C@H](O)[C@H]1NC(C)=O | > 100000 ng/mL | 5 ng/mL (≈ 12.8 nM) |  | 
CCCN(CCC)C(=O)[C@@H]1OC(C(=O)O)=C[C@H](N)[C@H]1NC(C)=O | 700 ng/mL (≈ 2140 nM) | 2 ng/mL (≈ 6.11 nM) |  | 
CCCN(CCC)C(=O)[C@@H]1OC(C(=O)O)=C[C@H](N)[C@H]1NC(=O)CC | 3000 ng/mL (≈ 8790 nM) | 0.2 ng/mL (≈ 0.586 nM) |  | 
CCCN(CCc1ccccc1)C(=O)[C@@H]1OC(C(=O)O)=C[C@H](N)[C@H]1NC(=O)C(F)(F)F | 56 ng/mL (≈ 126 nM) | 4 ng/mL (≈ 9.02 nM) |  | 
CCCN(CCC)C(=O)[C@@H]1OC(C(=O)O)=C[C@H](N)[C@H]1NC(=O)C(F)(F)F | 300 ng/mL (≈ 787 nM) | 0.01 ng/mL (≈ 0.0262 nM) |  | 
CCCN(CCc1ccccc1)C(=O)[C@@H]1OC(C(=O)O)=C[C@H](N)[C@H]1NC(C)=O | 280 ng/mL (≈ 719 nM) | 30 ng/mL (≈ 77 nM) | 300 ng/mL (≈ 770 nM) | 30 ng/mL (≈ 77 nM)
CC(=O)N[C@H]1[C@H]([C@H](O)[C@H](O)CO)OC(C(=O)O)=C[C@@H]1NC(=N)N [ZANAMIVIR] | 2 ng/mL (≈ 6.02 nM) | 5 ng/mL (≈ 15 nM) |  | 
